From patent US8618110B2, “Compositions and methods for apoptosis modulators” (VM Discovery Inc., priority 2007, dated 2013)

Key:
[1] = tested on: SF268 (glioblastoma) tumor cell line; test: MTT proliferation assay, SF268; format: cell-based; conditions: Homo sapiens, SF-268, 120 h, 5 days
Protocol: (§1) Human tumor cell lines were obtained from the American Type Culture Collection, the National Cancer Institute or from the originator as a kind gift. All cells were grown in RPMI 1640 (Invitrogen) medium containing 10% fetal bovine serum and 2 mM L-glutamine.
(§2) Logarithmically growing cells cultured in T75 flasks (Falcon) were harvested and inoculated into 96 well microtiter plates in 100 μL at plating densities ranging from 2,000 to 5,000 cells/well depending on the doubling time of individual cell lines. After cell inoculation, the microtiter plates are incubated at 37° C., 5% CO2, 95% air and 100% relative humidity for 24 h prior to addition of drug.
(§3) After 24 h, one plate of each cell line is developed with MTT (3-4,5-Dimethylthiazol-2-yl)-2,5-diphenyltetrazolium bromide, yellow), which is reduced to purple formazan in the mitochondria of living cells. […] The absorbance of this colored solution can be quantified by measuring at a certain wavelength (usually between 500 and 600 nm) by a spectrophotometer. […] The d0 growth value for each cell line is later deducted from each of the readouts at termination of the experiment. Essentially the final readouts are normalized for baseline growth, which enables us direct deduction of growth inhibition parameters from the graphed data. […]
(§4) Two independent experiments were conducted and the IC50 concentrations calculated plus/minus standard deviation.

human tumor cell lines = test: MTT proliferation assay, human tumor cell lines; format: cell-based; conditions: H23, H460, DU-145; IC50 comparison
Protocol: as §1, §2, §3, §4

[2] = tested on: H460 (lung) tumor cell line; test: MTT proliferation assay, H460; format: cell-based, human; conditions: FIG. 1B
Protocol: as §1, §2, §3, §4

[3] = tested on: DU-145 (prostate) tumor cell line; test: MTT proliferation assay, DU-145; format: cell-based, human; conditions: FIG. 1C
Protocol: as §1, §2, §3, §4

[4] = tested on: H23 (lung) tumor cell line; test: MTT proliferation assay, H23; format: cell-based, human; conditions: FIG. 1A
Protocol: as §1, §2, §3, §4

SMILES: O=C(O)c1ccc(N2CCN(CCCn3c4c(n[n+]3[O-])C(=O)c3ccccc3C4=O)CC2)cc1 [Compound 101]
- IC50 [1]: 330 nM

SMILES: CN(C)CC[C@H](CSc1ccccc1)Nc1ccc(S(=O)(=O)NC(=O)c2ccc(N3CCN(Cc4ccccc4-c4ccc(Cl)cc4)CC3)cc2)cc1[N+](=O)[O-] [Abt-737]
- potency compared with VMD in the same cell lines (human tumor cell lines): at least two-order of magnitude less potent
- IC50 values (range in words) [2]: high μM range
- IC50 values (range in words) [3]: high μM range
- IC50 values (range in words) [4]: high μM range
